The values below come from PubChem BioAssay (NCI).

Common to all, as to assay: growth of human tumour cells (NCI), 48 h
In experiment [1] the test system is 786-0 renal.
Experiment [2] relates to A498 renal.
For experiment [3], the system named is HCT-116 colon.
The subject of experiment [4] is MCF7 breast.
In experiment [5] the test system is NCI-H226 lung.
For experiment [6], the system named is NCI-H522 lung.
For experiment [7], the system named is OVCAR-3 ovarian.
The test system of experiment [8] is OVCAR-4 ovarian.
The test system of experiment [9] is SF-268 CNS.
In experiment [10] the test system is SK-OV-3 ovarian.

Molecules are shown by their SMILES.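 Briefly, cells in 96-well plates were exposed to five compound concentrations for 48 h, and endpoints were estimated by linear interpolation. At the TGI there is no net growth.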

As for `COc1cc(C2c3c(ccc4ccccc34)C(=O)C3CCC(=O)N32)cc(OC)c1OC` (stereo not given), the TGI in experiment [1], in experiment [2], in experiment [3], in experiment [4], in experiment [5] and in experiment [6] was more than 50 µM throughout. Moreover, the TGI in experiment [7], in experiment [8], in experiment [9] and in [10] was more than 50 µM each time.
As for `O=C(O)CC(Cc1ccccc1Cl)C(=O)O` (stereo not given), the TGI in experiment [1], in experiment [2], in experiment [3], in experiment [4], in [5] and in [6] was more than 100 µM each time. Moreover, the TGI in [7], in experiment [8], in experiment [9] and in [10] was more than 100 µM each time.
In the case of `CC1CC[C@@]2(OC1)OC1C[C@H]3[C@@H]4CC=C5CC(OC6OC(CO)C(OC7OC(CO)C(O)C(OC8OCC(O)C(O)C8O)C7OC7OC(CO)C(OC8OC(C)C(OC9OC(C)C(O)C(O)C9O)C(O)C8O)C(O)C7O)C(O)C6O)CCC5(C)[C@H]4CCC3(C)C1[C@@H]2C` (stereo not given in full), the TGI in experiment [1] turned out to be 10.3 µM; in [2], 8.7 µM; in experiment [3], 15.3 µM; in experiment [4] it was 26.8 µM; in experiment [5] it was 18.1 µM; in experiment [6] it was 16.8 µM. Further, the TGI in experiment [7] turned out to be 20.7 µM; in experiment [8], 12.8 µM; in experiment [9], 18 µM; in [10] it was 17.3 µM.
On to `N#Cc1c(-c2ccc(Cl)cc2)c2c(nn3c4ccc5ccccc5c4nnc23)[nH]c1=O`, for which the TGI in experiment [1] was 6.16 µM; in [2], 3.69 µM; in [3] it was 7.02 µM; in experiment [4] it was 14.8 µM; in experiment [5] it was more than 52.5 µM; in [6] it was 3.56 µM. Besides, the TGI is 3.62 µM in experiment [7], 21.6 µM in experiment [8], 8.26 µM in experiment [9] and 7.99 µM in [10].
On to `OC1[C@@H]2[C@@H](O)CCCN2C[C@@H](O)[C@H]1O` (stereo not given in full), for which the TGI in experiment [1], in [2], in experiment [3], in experiment [4], in experiment [5] and in [6] was more than 100 µM in each case. The TGI in [7], in [8], in experiment [9] and in [10] was more than 100 µM throughout.
On to `Cc1ccc(Nc2nc3[nH]ccc3c(=O)[nH]2)cc1`, for which the TGI in experiment [1], in experiment [2], in [3], in experiment [4], in [5] and in experiment [6] was more than 100 µM in each case. For the same molecule, the TGI in experiment [7], in experiment [8], in experiment [9] and in experiment [10] was more than 100 µM each time.
Regarding `CC(N=NNc1ccc(-c2nc3ccccc3[nH]2)cc1)C(=O)O` (stereo not given), the TGI was 89.9 µM in experiment [1]; more than 100 µM in [2]; more than 100 µM in [3]; 34.1 µM in experiment [4]; more than 100 µM in experiment [5]; 75.7 µM in experiment [6]. Also, the TGI in [7] is 54.7 µM; in experiment [8], more than 100 µM; in [9] it was more than 100 µM; in [10], more than 100 µM.
On to `CCOC(=O)c1c(C)n(Cc2ccc(Cl)cc2Cl)c2c1cc(O)c1[nH]c3c(c12)CCCC3`, for which the TGI in [1] was more than 100 µM; in [2], 38.6 µM; in experiment [3] it was more than 100 µM; in experiment [4], 52 µM; in experiment [5] it was 45.5 µM; in experiment [6], 38.8 µM. The TGI in experiment [7] was more than 100 µM; in experiment [8], 41.7 µM; in [9], 56.4 µM; in experiment [10] it was more than 100 µM.
As to `O=c1[nH]cc(NCCCl)c(=O)[nH]1`, the TGI in experiment [1], in experiment [2], in experiment [3], in [4], in experiment [5] and in [6] was more than 100 µM throughout. Also, the TGI in [7], in experiment [8], in experiment [9] and in experiment [10] was more than 100 µM in each case.
Regarding `O=C1c2cccc([N+](=O)[O-])c2C(=O)N1Cc1ccccc1`, the TGI in experiment [1], in [2], in experiment [3], in [4], in experiment [5] and in experiment [6] was more than 100 µM in each case. The TGI in experiment [7], in experiment [8], in experiment [9] and in experiment [10] was more than 100 µM throughout.
Take `CN(C)CC(O)c1ccc(Cl)c2ccccc12` (stereo not given): the TGI is more than 100 µM in [1]; 45.9 µM in [2]; more than 100 µM in experiment [3]; more than 81.8 µM in experiment [4]; more than 57 µM in [5]; more than 100 µM in experiment [6]. In addition, the TGI in experiment [7], in experiment [8], in experiment [9] and in experiment [10] was more than 100 µM in each case.
`O=C(O)CN(CC(=O)O)C1CCCCC1N1CC(=O)OC(=O)C1` (stereo not given): the TGI in [1], in [2], in experiment [3], in experiment [4], in experiment [5] and in [6] was more than 100 µM each time. Besides, the TGI in experiment [7], in experiment [8], in experiment [9] and in [10] was more than 100 µM in each case.
For `CC(C)(C)c1ccc(OCCOc2ccc(C(C)(C)C)cc2N)c(N)c1`, the TGI in experiment [1], in [2], in experiment [3], in [4], in experiment [5] and in [6] was more than 100 µM throughout. Also, the TGI in experiment [7], in experiment [8], in [9] and in [10] was more than 100 µM throughout.
In the case of `CN(C)CCNc1ccc2c(=O)n(CCN(C)C)c(=O)n3c4ccc(O)cc4c(=O)c1c23`, the TGI in experiment [1] was 0.156 µM; in experiment [2] it was 0.515 µM; in experiment [3] it was 0.308 µM; in experiment [4] it was 0.634 µM; in experiment [5] it was 0.322 µM; in experiment [6], 0.221 µM. For the same molecule, the TGI in experiment [7] was found to be 1.29 µM; in experiment [8], 0.38 µM; in [9], 0.416 µM; in experiment [10], 1.04 µM.
